Assays:
[1] = target: T1, rabbit uterus cytosol progesterone receptor (Oryctolagus cuniculus, UniProt P06186); assay: Relative affinity to rabbit uterus cytosol progesterone receptor (3H-progesterone competition); assay type: binding; conditions: compared to progesterone; 50% competition with 3H-progesterone; 16-18 hours at 4° C.
T1 construct: One ml portions of the supernatant (rabbit uterus cytosol) were pipetted into small centrifuge tubes of glass; from tissue; host or cells: uterus cytosol (105,000×g supernatant) of female rabbits pretreated with polyestradiol phosphate
T1 sequence (P06186 1-930): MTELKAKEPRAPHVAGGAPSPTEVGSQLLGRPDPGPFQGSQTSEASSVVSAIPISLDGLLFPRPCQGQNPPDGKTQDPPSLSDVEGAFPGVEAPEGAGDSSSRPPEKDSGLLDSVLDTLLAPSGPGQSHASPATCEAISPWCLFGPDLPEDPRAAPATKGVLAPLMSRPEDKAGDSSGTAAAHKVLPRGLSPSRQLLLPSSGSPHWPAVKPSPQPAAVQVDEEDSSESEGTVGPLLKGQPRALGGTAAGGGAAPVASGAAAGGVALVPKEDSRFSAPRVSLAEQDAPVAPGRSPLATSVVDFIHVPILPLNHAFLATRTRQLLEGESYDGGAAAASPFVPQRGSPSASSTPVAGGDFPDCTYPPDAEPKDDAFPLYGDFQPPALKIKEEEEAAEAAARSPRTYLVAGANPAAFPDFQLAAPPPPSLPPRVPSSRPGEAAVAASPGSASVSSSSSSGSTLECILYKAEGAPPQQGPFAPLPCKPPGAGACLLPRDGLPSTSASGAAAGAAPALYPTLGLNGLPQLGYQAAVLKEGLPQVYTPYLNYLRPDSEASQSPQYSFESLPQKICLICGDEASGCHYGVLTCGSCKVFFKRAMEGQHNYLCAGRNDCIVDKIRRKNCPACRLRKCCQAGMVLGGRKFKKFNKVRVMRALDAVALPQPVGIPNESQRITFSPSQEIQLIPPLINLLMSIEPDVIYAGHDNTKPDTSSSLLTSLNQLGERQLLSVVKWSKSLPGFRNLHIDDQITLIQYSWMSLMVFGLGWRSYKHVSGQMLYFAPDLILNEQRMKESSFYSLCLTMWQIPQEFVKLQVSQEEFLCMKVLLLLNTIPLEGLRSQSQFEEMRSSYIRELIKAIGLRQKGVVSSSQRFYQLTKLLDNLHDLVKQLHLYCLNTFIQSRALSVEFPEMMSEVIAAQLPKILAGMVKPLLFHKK
Description: This example illustrates the compound's relative affinity to rabbit uterus cytosol progesterone receptor compared with progesterone. The method used for this purpose is a modification of methods already described by Kontula, K. et al. (Acta Endocrinol. 78 (1975) 574) and Terenius, L. (Steroids 23 (1974) 909) among others.
Female rabbits (3-4 pounds) from Knut Larsen, Uddevalla, Sweden, were injected i.m. with 1 mg Estradurin (polyestradiol phosphate, 1 mg/ml saline, AB Leo, Sweden). After one week, the animals were killed and the uteri were immediately removed, chilled and cut free from connective tissues. All the following operations were performed at 0°-4° C. The uteri were cut into small pieces and washed several times with 3 vol. of buffer at pH 7.4 containing 50 MM TRIS-HCl, 1.5 mM EDTA, 3 mM NaN3, 2 mM dithiothreitol, and 25% glycerol (by vol.). The tissue was homogenized in the same buffer (3 vol.) with four 15-s bursts at rheostat setting 36-37 of an Ultra Turrax (Janke and Kunkel KG, Staufen, The Federal Republic of Germany). The homogenate was centifuged in a Sorvall GLC-2 centrifuge for 15 min at 600×g. The supernatanate was recentrifuged at 105,000×g for 60 min in a Beckman ultracentrifuge model LB-65-B with rotor SW 56.
One ml portions of the supernatant (rabbit uterus cytosol) were pipetted into small centrifuge tubes of glass and were kept at -70° C. until used. The protein content was determined by the method of Lowry (J. Biol. Chem. 193 (1951) 265).
10.0 mg of each compound was dissolved in 10.0 ml 99.5% ethanol. 100 μl of this standard solution was diluted to 5.0 ml ethanol/glycerol 1:1 (v/v). The ethanol was evaporated by blowing air at 40° C. on the solution. The volume was then adjusted to 5.0 ml by adding buffer without glycerol.
The compounds were diluted with glycerol/buffer 1:1 to final concentrations between 10^-8 -10^-5 M in total 300 μl incubation media. 100 μl of each compound and of each dilution were incubated in small centrifuge tubes (2 ml) together with 100 μl (10 pg) ^3 H-progesterone (1,2,6,7-3H-progesterone, 47.8 Ci/mMol, The Radiochemical Centre, Amersham, England) and 100 μl cytosol adjusted with buffer to a final concentration of about […]. The incubations were carried out for 16-18 hours at 4° C.
The separation of bound from free radioactivity was carried out at 0° C. using the dextran coated charcoal technique (DCC). To each incubation tube was added 0.5 ml DCC-suspension (0.05% dextran-70, Pharmacia, Uppsala, Sweden and 0.5% Norit A, Sigma, Saint Louis, Missouri, U.S.A.) The tubes were agitated 2-3 times during 10 minutes whereupon they were centrifuged at 100×g for five minutes. The supernatantes were decanted directly into Scintillation vials (polyethene, Packard) containing 10 ml InstaGel (Packard). The radioactivity was counted in a Philip's liquid scintillation spectrometer Model PW 4510/00 with external standard and automatic quenching correction.
To incubation tubes were added 100 μl cytosol, 100 μl ^3 H-progesterone (10 pg) and 100 μl of different dilutions of non-radioactive progesterone in glycerol/buffer 1:1 ranging from 0-10^4 pg/100 μl. The tubes were incubated parallel with the compounds described above. The radioactivity was calculated by substracting the counted radioactivity in the incubation tubes with the radioactivity counted in incubations tubes in which the cytosol was replaced with buffer (100 μl).
The concentration of non-radioactive progesterone [P]i which competes for 50% of bound radioactive progesterone was calculated from the standard curve constructed [B] i/[B] o=0.5 where [B]i is the bound radioactivity at different concentrations of non-radioactive progesterone and [B]o is the bound radioactivity at progesterone concentration zero.
In the same manner, curves were constructed for each compound X and the concentration for each compound which competes for 50% with bound ^3 H-progesterone ([X]50) was calculated. […]

[2] = system: Ehrlich ascites tumour, ELD hyperdiploid; assay: Ehrlich ascites tumour, ELD hyperdiploid (46 chromosomes), growth inhibition in mice; assay type: in vivo, SPF NMRI mice; conditions: 100 mg/kg, one i.p. injection
Procedure, shortened: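 SPF NMRI mice implanted i.p. with 2 × 10^6 ELD hyperdiploid Ehrlich ascites cells, given one i.p. injection the day after implantation. Animals killed on day 8; tumour weights compared with controls.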

Structure (SMILES): CC(=O)[C@@]1(OC(=O)COC(=O)c2ccc(C)c(N(CCCl)CCCl)c2)CC[C@H]2[C@@H]3CCC4=CC(=O)CC[C@]4(C)[C@H]3CC[C@@]21C [Compound 3:7, 17α-/3-(N,N-bis(2-chloroethyl)amino)-4-methylbenzoyloxyacetoxy/pregn-4-ene-3,20-dione]
- relative binding affinity (RBA) [1]: 1.8%
- Mortality [2]: 0/12
- Tumour weight Treated/Control ([2]; 8th day): 2%
